Data taken from ChEMBL document CHEMBL2074065, “Pravastatin, an HMG-CoA reductase inhibitor, is transported by rat organic anion transporting polypeptide, oatp2” (Pharm Res, 1999).

Legend:
[1] = target: T1, Solute carrier organic anion transporter family member 1A4 (Rattus norvegicus, UniProt O35913); experiment: TP_TRANSPORTER: inhibition of Pravastatin uptake (Pravastatin: 30 uM, Simvastatin: 300 uM) in Xenopus laevis oocytes; format: functional, cell-based; conditions: oocyte
T1 sequence (O35913 whole entry): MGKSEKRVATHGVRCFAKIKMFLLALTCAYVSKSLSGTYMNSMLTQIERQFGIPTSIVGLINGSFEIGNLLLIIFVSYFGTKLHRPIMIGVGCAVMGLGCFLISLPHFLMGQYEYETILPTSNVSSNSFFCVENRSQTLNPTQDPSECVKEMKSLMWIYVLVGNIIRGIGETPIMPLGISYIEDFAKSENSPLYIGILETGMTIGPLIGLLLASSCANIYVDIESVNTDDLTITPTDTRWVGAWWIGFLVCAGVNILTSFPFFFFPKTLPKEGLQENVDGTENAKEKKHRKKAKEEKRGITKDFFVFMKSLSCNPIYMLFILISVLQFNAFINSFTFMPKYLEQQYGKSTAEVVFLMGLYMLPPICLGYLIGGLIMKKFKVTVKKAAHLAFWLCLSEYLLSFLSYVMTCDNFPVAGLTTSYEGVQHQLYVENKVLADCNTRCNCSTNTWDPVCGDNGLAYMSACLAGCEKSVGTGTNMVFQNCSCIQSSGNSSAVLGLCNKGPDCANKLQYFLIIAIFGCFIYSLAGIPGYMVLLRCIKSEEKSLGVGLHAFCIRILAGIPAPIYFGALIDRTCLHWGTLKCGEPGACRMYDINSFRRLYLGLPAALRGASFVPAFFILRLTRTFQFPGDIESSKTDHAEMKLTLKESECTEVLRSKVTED

[2] = target: T1, Solute carrier organic anion transporter family member 1A4; experiment: TP_TRANSPORTER: inhibition of Pravastatin uptake (Pravastatin: 30 uM, E217betaG: 300 uM) in Xenopus laevis oocytes; format: functional, cell-based; conditions: oocyte
[3] = target: T1, Solute carrier organic anion transporter family member 1A4; experiment: TP_TRANSPORTER: inhibition of Pravastatin uptake (Pravastatin: 30 uM, BSP: 300 uM) in Xenopus laevis oocytes; format: functional, cell-based; conditions: oocyte
[4] = substrate: CC[C@H](C)C(=O)O[C@H]1C[C@H](O)C=C2C=C[C@H](C)[C@H](CC[C@@H](O)C[C@@H](O)CC(=O)O)[C@H]21; experiment: TP_TRANSPORTER: uptake in Xenopus laevis oocytes; format: functional, cell-based, Oocyte

CCC(C)(C)C(=O)O[C@H]1C[C@@H](C)C=C2C=C[C@H](C)[C@H](CC[C@@H]3C[C@@H](O)CC(=O)O3)[C@H]21 [SIMVASTATIN] was tested, and the Activity [1] was “inhibitor [+]”.

For C[C@]12CC[C@@H]3c4ccc(O)cc4CC[C@H]3[C@@H]1CC[C@@H]2O[C@@H]1O[C@H](C(=O)O)[C@@H](O)[C@H](O)[C@H]1O [ESTRADIOL 17B GLUCURONIDE], the Activity [2] was “inhibitor [+]”.

For O=C1OC(c2ccc(O)c(S(=O)(=O)[O-])c2)(c2ccc(O)c(S(=O)(=O)[O-])c2)c2c(Br)c(Br)c(Br)c(Br)c21.[Na+].[Na+] [SULFOBROMOPHTHALEIN SODIUM], the Activity [3] was “inhibitor [+]”.

B1: Solute carrier organic anion transporter family member 1A4 (Rattus norvegicus) (protein)
chain: T1 sequence (O35913 whole entry)
B1 showed a Km [4] of 37.5 µM.
